What was measured:
[1] = test system: NF-kB transcriptional activity in HEK-293-NF-kB-Luc cell line overexpressing MALT1; assay: NF-kB reporter assay (luciferase, MALT1 stably overexpressed); assay type: cell-based; conditions: Homo sapiens, 24 h, HEK-293-NF-kB-Luc cells stably overexpressing MALT1, 24 h treatment, Bright Glo luminescence; read-out: NF-kB inhibition IC50
Summary of the method: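 Inhibition of NF-κB activity was expressed relative to 0.1% DMSO wells, from luminescence after 10 min Bright Glo at ambient temperature. Compounds had been applied for 24 h to adhered MALT1-overexpressing HEK-293 NF-κB luciferase reporter cells.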

OCI-Ly-10 cells = assay: Anticancer assay (14 days), cell viability by CCK-8; assay type: cell-based; conditions: Homo sapiens, OCI-Ly10, 336 h, 14 days treatment, fresh treatment every 5th day, CCK-8 viability, read-out: Ly-10 (14d) inhibition IC50
Summary of the method: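 OCI-Ly-10 cells in IMDM + 20% FBS exposed to compound for 13–15 days, with media and compound refreshed every 5th day. Viability by CCK-8 absorbance at 450 nm (650 nm background); % inhibition versus 0.1% DMSO medium control.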

full length MALT1 enzyme = target: T1, full length MALT1 enzyme (Homo sapiens, UniProt Q9UDY8); assay: MALT1 biochemical assay (fluorescence based, Ac-Leu-Arg-Ser-Arg-AMC cleavage); conditions: full length MALT1 protein, 2 h pre-incubation at RT, tetrapeptide substrate Ac-Leu-Arg-Ser-Arg-AMC, read-out: Malt 1 inhibition IC50
T1 construct: a fluorescence based assay with full length MALT1 enzyme
T1 sequence (Q9UDY8 1-824): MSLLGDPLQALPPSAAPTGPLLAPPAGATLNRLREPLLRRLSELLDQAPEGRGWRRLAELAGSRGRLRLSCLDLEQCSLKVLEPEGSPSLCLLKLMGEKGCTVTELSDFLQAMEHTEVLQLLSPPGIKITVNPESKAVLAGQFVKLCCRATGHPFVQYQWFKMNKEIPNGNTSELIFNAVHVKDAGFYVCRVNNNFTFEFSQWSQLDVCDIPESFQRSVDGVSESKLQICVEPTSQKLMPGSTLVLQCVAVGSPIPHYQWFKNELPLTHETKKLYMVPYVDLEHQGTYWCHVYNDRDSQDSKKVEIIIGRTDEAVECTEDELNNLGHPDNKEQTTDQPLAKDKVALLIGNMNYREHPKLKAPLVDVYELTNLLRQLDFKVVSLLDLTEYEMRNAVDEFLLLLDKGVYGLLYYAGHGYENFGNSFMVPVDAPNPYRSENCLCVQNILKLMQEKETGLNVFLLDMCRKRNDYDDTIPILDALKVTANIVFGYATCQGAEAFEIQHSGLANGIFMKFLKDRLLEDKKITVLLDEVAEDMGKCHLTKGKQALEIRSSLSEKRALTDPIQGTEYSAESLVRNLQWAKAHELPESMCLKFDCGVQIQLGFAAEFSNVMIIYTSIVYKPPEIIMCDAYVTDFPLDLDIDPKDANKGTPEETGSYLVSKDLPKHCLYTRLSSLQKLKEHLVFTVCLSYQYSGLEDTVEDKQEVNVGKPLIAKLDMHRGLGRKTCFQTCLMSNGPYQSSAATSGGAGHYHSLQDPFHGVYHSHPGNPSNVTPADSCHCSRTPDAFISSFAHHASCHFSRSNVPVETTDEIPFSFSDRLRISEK
Summary of the method: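 Full-length MALT1 (100-300 ng/well) was pre-incubated with compound for 2 h at RT, then 100 μM Ac-LRSR-AMC was added for 4-12 h. Buffer was 50 mM MES, 150 mM NaCl, 0.1% CHAPS, 1 M ammonium citrate, 10 mM DTT, pH 7, with 0.5% DMSO. IC50 was derived from AMC fluorescence (ex 360/em 460 nm).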

IC50 (OCI-Ly-10 cells) | IC50 (full length MALT1 enzyme) | Structure (SMILES) | IC50 [1]
101 to 250 nM | 1 to 50 nM | COc1ncc(NC(=O)Nc2cnc3sc(C)nc3c2C2CC2)cc1Cl [Compound 1, 1-(5-Chloro-6-methoxypyridin-3-yl)-3-(7-cyclopropyl-2-methylthiazolo [5,4-b]pyridin-6-yl)urea] | 1 to 100 nM
251 to 500 nM | 1 to 50 nM | COc1ccc(NC(=O)Nc2cnc3sc(C)nc3c2C2CC2)cc1Cl [Compound 2, 1-(3-Chloro-4-methoxyphenyl)-3-(7-cyclopropyl-2-methylthiazolo[5,4-b]pyridin-6-yl)urea] | 501 to 1500 nM
26 to 100 nM | 1 to 50 nM | Cc1nc2c(C3CC3)c(NC(=O)Nc3cnc(-n4nccn4)c(Cl)c3)cnc2s1 [Compound 9, 1-(5-Chloro-6-(2H-1,2,3-triazol-2-yl)pyridin-3-yl)-3-(7-cyclopropyl-2-methylthiazolo[5,4-b]pyridin-6-yl)urea] | 1 to 100 nM
101 to 250 nM | 1 to 50 nM | CCc1c(NC(=O)Nc2cnc(OC)c(Cl)c2)cnc2sc(C)nc12 [Compound 26, 1-(5-Chloro-6-methoxypyridin-3-yl)-3-(7-ethyl-2-methylthiazolo[5,4-b]pyridin-6-yl)urea] | 101 to 500 nM
501 to 1500 nM | 1 to 50 nM | Cc1nc2c(N3CCOCC3)c(NC(=O)Nc3cnc(-n4nccn4)c(Cl)c3)cnc2s1 [Compound 28, 1-(5-Chloro-6-(2H-1,2,3-triazol-2-yl)pyridin-3-yl)-3-(2-methyl-7-morpholinothiazolo[5,4-b]pyridin-6-yl)urea] | 101 to 500 nM
26 to 100 nM | 1 to 50 nM | COCCN(c1c(NC(=O)Nc2cnc(-n3nccn3)c(Cl)c2)cnc2sc(C)nc12)C1CC1 [Compound 49, 1-(5-Chloro-6-(2H-1,2,3-triazol-2-yl)pyridin-3-yl)-3-(7-(cyclopropyl(2-methoxyethyl)amino)-2-methylthiazolo[5,4-b]pyridin-6-yl)urea] | 1 to 100 nM
26 to 100 nM | 1 to 50 nM | Cc1nc2c(C3=CCCCC3)c(NC(=O)Nc3cnc(-n4nccn4)c(Cl)c3)cnc2s1 [Compound 59, 1-(5-Chloro-6-(2H-1,2,3-triazol-2-yl)pyridin-3-yl)-3-(7-(cyclohex-1-en-1-yl)-2-methylthiazolo[5,4-b]pyridin-6-yl)urea] | 101 to 500 nM
0.1 to 25 nM | 1 to 50 nM | COC(C)(C)c1c(NC(=O)Nc2cnc(-n3nccn3)c(C(F)(F)F)c2)cnc2sc(C)nc12 [Compound 96, 1-(6-(2H-1,2,3-Triazol-2-yl)-5-(trifluoromethyl)pyridin-3-yl)-3-(7-(2-methoxypropan-2-yl)-2-methylthiazolo[5,4-b]pyridin-6-yl)urea] | 1 to 100 nM
101 to 250 nM | 1 to 50 nM | Cc1nc2c(C3(CF)CC3)c(NC(=O)Nc3ccc(-n4nccn4)c(Cl)c3)cnc2s1 [Compound 107, 1-(3-Chloro-4-(2H-1,2,3-triazol-2-yl)phenyl)-3-(7-(1-(fluoromethyl)cyclopropyl)-2-methylthiazolo[5,4-b]pyridin-6-yl)urea] | 1 to 100 nM
26 to 100 nM | 1 to 50 nM | Cc1nc2c(C(C)C)c(NC(=O)Nc3cnc(-n4nccn4)c(Cl)c3)cnc2s1 [Compound 115, 1-(5-Chloro-6-(2H-1,2,3-triazol-2-yl)pyridin-3-yl)-3-(7-isopropyl-2-methylthiazolo[5,4-b]pyridin-6-yl)urea] | 1 to 100 nM
251 to 500 nM | 1 to 50 nM | COc1ncc(NC(=O)Nc2cnc3sc(C)nc3c2C(C)C)cc1Cl [Compound 119, 1-(5-Chloro-6-methoxypyridin-3-yl)-3-(7-isopropyl-2-methylthiazolo[5,4-b]pyridin-6-yl)urea] | 101 to 500 nM
251 to 500 nM | 1 to 50 nM | Cc1nc2c(C3CC3)c(NC(=O)Nc3ccc(-n4nccn4)c(Cl)c3)cnc2s1 [Compound 168, 1-(3-Chloro-4-(2H-1,2,3-triazol-2-yl)phenyl)-3-(7-cyclopropyl-2-methylthiazolo[5,4-b]pyridin-6-yl)urea] | 501 to 1500 nM
501 to 1500 nM | 51 to 100 nM | COc1ncc(Cl)cc1NC(=O)Nc1cnc2sc(C)nc2c1C1CC1 [Compound 192, 1-(5-Chloro-2-methoxypyridin-3-yl)-3-(7-cyclopropyl-2-methylthiazolo[5,4-b]pyridin-6-yl)urea] | 101 to 500 nM
251 to 500 nM | 1 to 50 nM | Cc1nc2c(C3(CO)CC3)c(NC(=O)Nc3cnc(-n4nccn4)c(C(F)(F)F)c3)cnc2s1 [Compound 223, 1-(6-(2H-1,2,3-Triazol-2-yl)-5-(trifluoromethyl)pyridin-3-yl)-3-(7-(1-(hydroxymethyl)cyclopropyl)-2-methylthiazolo[5,4-b]pyridin-6-yl)urea] | 1 to 100 nM
